“Also recorded” adds a separate entry of the source.
What was measured:
[1] = tested on: radiation-induced dermatitis on backs of rats; assay: Radiation-induced dermatitis in rat skin model; assay type: in vivo
p21 in human fibroblasts = assay: p21 western blot in human skin fibroblasts; assay type: cell-based; settings: IC70 concentration of PrC-210 (4100 μM); cysteamine 600 μM; 30 hour exposure
Description: (§1) Methods (Cell cycle and p21 western): The cell culture experiments were done using primary, human skin fibroblasts, one strain of which (BJ cells) was obtained from ATCC (American Type Culture Collection). […] For flow cytometry and p21 experiments, cells were plated at 0.5×10^6 cells/150 mm plate, and 24 hr later, drug molecules (4100 μM PrC-210, 600 μM cysteamine, 205 μM cysteamine analog, 0.4 μg/ml colcemid) were added to medium. […] (Cancer Research. 61(21):7754-62, 2001). As per the cited reference, cells were fixed, treated with RNAse, and stained with propidium iodide for flow cytometry, or cells were extracted, proteins electrophoresed, and probed with anti-p21 antibody (#SXM-30) for western blot analysis.

[2] = tested on: B16 melanoma tumor xenografts; assay: Effect of topical drug on killing of tumor xenograft by systemic Cytoxan; assay type: in vivo, mouse; settings: topical dose 5-times higher than standard regimen; Cytoxan 200 ug/gm b.w. ip
[3] = tested on: primary, human skin fibroblasts; assay: Cell cycle block in human skin fibroblasts (flow cytometry); assay type: cell-based
Description: as §1

## CNCC(CS)CNC [PrC-210, 3-methylamino-2-methylaminomethyl-propane-1-thiol]
[1]; 0:95:5 versus 50:30:20 ethanol:PG:water
  dose for complete protection in 0:95:5 vehicle relative to 50:30:20 vehicle: about 10 times
[1]; 370 mM, vehicle 0:95:5, Experiment 440-443
  Dermatitis Score (% of irradiated field free of scab material): <50%
[1]; 370 mM, vehicle 50:30:20, Experiment 574-577
  Dermatitis Score (% of irradiated field free of scab material): 100 ± 0%
[1]; 370 mM, vehicle 50:30:20, Experiment 643-646
  Dermatitis Score (% of irradiated field free of scab material): 98 ± 3%
[1]; 740 mM, vehicle 0:95:5 ethanol:prop. glycol:water, Experiment 440-443
  Dermatitis Score (% of irradiated field free of scab material): 68%
[1]; 740 mM, vehicle 50:30:20, Experiment 626-629
  Dermatitis Score (% of irradiated field free of scab material): 96 ± 3%
[1]; 740 mM, vehicle 50:30:20, Experiment 643-646
  Dermatitis Score (% of irradiated field free of scab material): 96 ± 4%
[1]; 900 mM PrC-210, vehicle 0:95:5, cage 440, 8.7 Gy
  Dermatitis Score (% of irradiated field free of scab material): 68 ± 10%
[1]; 1200 mM PrC-210, vehicle 0:95:5, cage 441
  Dermatitis Score (% of irradiated field free of scab material): 95 ± 5%
[1]; 95:5 PG:water vehicle
  concentration conferring complete protection against radiation-induced dermatitis: 1200 to 1500 mM
[1]; aminothiol alone, without epinephrine, 8.7 Gy
  concentration of topical aminothiol alone conferring complete protection against radiodermatitis: ~1200 mM
[1]; vehicle 0:95:5 ethanol:PG:water
  dose required for complete protection (100% Clear Skin) against radiodermatitis: ~24 mg/cm skin
[1]; vehicle 50:30:20 ethanol:PG:water
  applied dose conferring complete protection against radiation-induced dermatitis: 2.8 mg/cm^2 skin
[1]; vehicle 50:30:20 ethanol:PG:water, total applied volume 105 ul
  concentration conferring complete protection against radiation-induced dermatitis: 370 mM
p21 in human fibroblasts
  p21 expression: induces expression of the cell cycle regulator, p21; also recorded: marked induction of p21 expression
[2]
  effect upon killing of tumor xenografts by systemic Cytoxan chemotherapy: no discernible effect
[3]; change of cell culture medium
  time to reversion to normal cell division after wash-out: ≤ 48 h
[3]; log-phase human fibroblast cultures
  cell cycle block (phase): in the G1 phase of the cell cycle; also recorded: G1-specific cell cycle block; also recorded: reversible G1 cell cycle block
[3]; upon washout or removal of the drug
  reversibility of cell cycle block: reversible
